The values below come from ChEMBL document CHEMBL5137049, “Discovery of a Novel Small-Molecule Inhibitor Disrupting TRBP-Dicer Interaction against Hepatocellular Carcinoma via the Modulation of microRNA Biogenesis” (J Med Chem, 2022).

In general, pEC50 refers to −log10 of the EC50, conventionally taken in molar units.

One assay deals with HeLa. As to the kind of experiment: Inhibition of microRNA in human HeLa cells transfected with pCI-neo-luciferase-miR-21 plasmid assessed as change in luciferase signal by measuring relative luciferase unit by luciferase reporter assay. The class given is cell-based. On the technique in general: A reporter such as luciferase makes a cellular process visible.
Assay [1] concerns the target T1, Programmed cell death protein 4 (Homo sapiens) (UniProt Q53EL6).
T1 sequence (whole entry): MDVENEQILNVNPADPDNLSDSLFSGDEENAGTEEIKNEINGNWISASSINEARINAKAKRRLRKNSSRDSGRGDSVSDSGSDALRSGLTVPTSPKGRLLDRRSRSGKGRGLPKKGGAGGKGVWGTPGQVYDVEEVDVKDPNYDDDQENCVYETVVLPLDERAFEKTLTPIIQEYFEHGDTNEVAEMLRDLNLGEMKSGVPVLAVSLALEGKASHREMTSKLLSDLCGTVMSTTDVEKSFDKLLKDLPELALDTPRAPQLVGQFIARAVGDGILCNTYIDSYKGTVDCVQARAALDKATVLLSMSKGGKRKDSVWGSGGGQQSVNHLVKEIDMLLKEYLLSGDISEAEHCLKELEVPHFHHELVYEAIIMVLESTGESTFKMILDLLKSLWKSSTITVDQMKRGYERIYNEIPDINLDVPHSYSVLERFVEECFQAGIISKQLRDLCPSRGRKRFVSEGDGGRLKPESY
As to the kind of experiment: Inhibition of PDCD4 in human HeLa cells tranfected with pCI-neo-luciferase-PDCD4 3'-UTR plasmid assessed as fold change in luciferase signal by measuring relative luciferase unit by luciferase reporter assay. In kind it is cell-based.

Assay [2] concerns SK-HEP1. Nature of the assay: Antiproliferative activity against human SK-HEP1 cells assessed as inhibition of cell growth incubated for 72 hrs by CellTiter-luminescence assay. The class given is functional, cell-based.
A further assay has as its system HCCLM3. As to the kind of experiment: Antiproliferative activity against human HCCLM3 cells assessed as inhibition of cell growth incubated for 72 hrs by CellTiter-luminescence assay. The class given is functional, cell-based.
Assay [3] relates to SK-HEP1. Nature of the assay: Inhibition of cell migration in human SK-HEP1 cells at 10 to 25 uM measured after 24 hrs by crystal violet staining based transwell assay. Conditions: dose 10-25 µM. The class given is functional.
Assay [4] is described as follows: Inhibition of microRNA in human HeLa cells transfected with pCI-neo-luciferase-miR-21 plasmid assessed as change in luciferase signal incubated for 24 hrs by luciferase reporter assay. The class given is cell-based.

pEC50: −log10 of the molar value. Active and inactive are the calls of the source. The calls are words filed in the database; no cut-off is given here.

On to `COc1ccc(-c2nc(CN([C@@H](C(=O)NO)C(C)C)S(=O)(=O)c3ccc(OC)cc3)c(C)o2)cc1`, for which the RLU was determined as 1.01 with HeLa and 1.02 in assay [1].
As for `COC(=O)[C@@H](C(C)C)N(Cc1nc(-c2ccc(OCc3ccccc3)cc2)oc1C)S(=O)(=O)c1ccc(OC)cc1`, the RLU in the assay on HeLa was 1.58; in assay [1] it was 1.32.
For `CCOC(=O)c1nc(-c2ccc(-c3ccccc3)cc2)oc1C`, the outcome in the assay on SK-HEP1 [2] and with HCCLM3 was Active. Moreover, the inhibition result in the assay with SK-HEP1 [3] is “Active”. The pEC50 in assay [4] was 5.73.
For the compound `COC(=O)[C@@H](C(C)C)N(Cc1nc(-c2ccc(Cl)cc2)oc1C)S(=O)(=O)c1ccc(OC)cc1`, the RLU is 1.12 with HeLa and 0.93 in assay [1].
On to `COc1ccc(-c2nc(CCl)c(C)o2)cc1`, for which the figures for the RLU (with HeLa; in assay [1]) were 1.12 and 1.05, respectively.
The like results for `COc1ccc(S(=O)(=O)N(Cc2nc(-c3ccccc3)oc2C)[C@@H](C(=O)O)C(C)C)cc1` were, in that order, 1.05 and 1.01.
The like results for `COc1ccc(-c2nc(CN([C@@H](C(=O)O)C(C)C)S(=O)(=O)c3ccc(OC)cc3)c(C)o2)cc1` were, in that order, 1.04 and 1.
The like results for `COC(=O)[C@@H](C(C)C)N(Cc1nc(-c2ccccc2)oc1C)S(=O)(=O)c1ccc(OC)cc1` were, in that order, 0.96 and 1.09.
On to `COC(=O)[C@@H](C(C)C)N(Cc1nc(-c2ccc(OC)cc2)oc1C)S(=O)(=O)c1ccc(OC)cc1`, for which the RLU in the assay on HeLa is 0.99; in assay [1], 1.03.
As for `COc1cc(-c2nc(CCl)c(C)o2)cc(OC)c1OC`, the RLU turned out to be 1.09 in the assay with HeLa and 2.01 in assay [1].
The like results for `COC(=O)[C@H](NS(=O)(=O)c1ccc(OC)cc1)C(C)C` were, in that order, 1.02 and 1.06.
The like results for `Cc1oc(-c2ccccc2)nc1CCl` were, in that order, 1.13 and 1.03.
In the same order, the values of `COc1ccc(-c2nc(CN([C@@H](C(=O)O)C(C)C)S(=O)(=O)c3ccc(C)cc3)c(C)o2)cc1OC` are 0.98 and 0.97.
`COC(=O)[C@@H](C(C)C)N(Cc1nc(-c2ccc(Cl)cc2)oc1C)S(=O)(=O)c1ccc(C)cc1`: the RLU in the assay with HeLa is 1.03; in assay [1] it was 1.08.
In the same order, the values of `COC(=O)[C@@H](C(C)C)N(Cc1nc(-c2ccc(OC)cc2)oc1C)S(=O)(=O)c1ccc(C)cc1` are 1.06 and 1.04.
In the same order, the values of `COC(=O)[C@@H](C(C)C)N(Cc1nc(-c2ccc([N+](=O)[O-])cc2)oc1C)S(=O)(=O)c1ccc(OC)cc1` are 0.98 and 0.96.
Turning to `CCOC(=O)c1nc(-c2ccc(Cl)cc2)oc1C`, the negative logarithm of the EC50 (pEC50) in assay [4] was 5.13.
As for `CCOC(=O)c1nc(-c2ccccc2)oc1C`, the RLU in the assay on HeLa worked out at 1.14; in assay [1], 1.07.
As to `CCOC(=O)c1nc(-c2ccc(Br)cc2)oc1C`, in assay [4], the pEC50 is 5.22.
As for `CCOC(=O)c1nc(-c2cc(OC)c(OC)c(OC)c2)oc1C`, the RLU in the assay with HeLa amounted to 1.13; in assay [1] it was 1.09.
The like results for `COc1ccc(S(=O)(=O)N(Cc2nc(-c3ccc(OC)c(OC)c3)oc2C)[C@@H](C(=O)NO)C(C)C)cc1` were, in that order, 1.02 and 0.86.
`CCOC(=O)c1nc(-c2ccc(C)cc2)oc1C`: the outcome in the assay with SK-HEP1 [2] and in the assay with HCCLM3 was Active. Besides, the inhibition entry with SK-HEP1 [3] was “Active”. For the same compound, in assay [4], the pEC50 is 5.52.
With `COc1ccc(S(=O)(=O)N(Cc2nc(-c3ccc(OCc4ccccc4)cc3)oc2C)[C@@H](C(=O)O)C(C)C)cc1`, the RLU was 2.47 in the assay with HeLa and 1.65 in assay [1].
Consider `Cc1ccc(S(=O)(=O)N(Cc2nc(-c3ccc(Cl)cc3)oc2C)[C@@H](C(=O)O)C(C)C)cc1`, for which the RLU with HeLa stood at 1.14; in assay [1], 1.03.
Turning to `Cc1oc(-c2ccc(OCc3ccccc3)cc2)nc1CCl`, the RLU came out at 4.77 in the assay with HeLa and 2.01 in assay [1].
The like results for `COc1ccc(S(=O)(=O)N(Cc2nc(-c3ccc(Cl)cc3)oc2C)[C@@H](C(=O)O)C(C)C)cc1` were, in that order, 1.06 and 0.97.
The like results for `COc1ccc(S(=O)(=O)N(Cc2nc(-c3ccc([N+](=O)[O-])cc3)oc2C)[C@@H](C(=O)O)C(C)C)cc1` were, in that order, 1.17 and 1.02.
The like results for `COC(=O)[C@@H](C(C)C)N(Cc1nc(-c2ccc(OC)c(OC)c2)oc1C)S(=O)(=O)c1ccc(C)cc1` were, in that order, 1.08 and 0.95.
For the compound `COC(=O)[C@@H](C(C)C)N(Cc1nc(-c2cc(OC)c(OC)c(OC)c2)oc1C)S(=O)(=O)c1ccc(OC)cc1`, the RLU was found to be 1.08 in the assay with HeLa and 1.03 in assay [1].
The like results for `COc1ccc(-c2nc(CN([C@@H](C(=O)O)C(C)C)S(=O)(=O)c3ccc(C)cc3)c(C)o2)cc1` were, in that order, 1.12 and 1.05.
In the same order, the values of `COc1ccc(-c2nc(CCl)c(C)o2)cc1OC` are 1.3 and 1.06.
The like results for `COc1ccc(S(=O)(=O)N(Cc2nc(-c3ccc(OC)c(OC)c3)oc2C)[C@@H](C(=O)O)C(C)C)cc1` were, in that order, 1.02 and 0.86.
For the compound `COc1ccc(S(=O)(=O)N(Cc2nc(-c3cc(OC)c(OC)c(OC)c3)oc2C)[C@@H](C(=O)NO)C(C)C)cc1`, the RLU with HeLa was found to be 1.06; in assay [1] it was 0.94.
In the same order, the values of `COc1ccc(S(=O)(=O)N(Cc2nc(-c3cc(OC)c(OC)c(OC)c3)oc2C)[C@@H](C(=O)O)C(C)C)cc1` are 1.08 and 1.02.
Turning to `CCOC(=O)c1nc(-c2ccc(OC)c(OC)c2)oc1C`, the RLU in the assay with HeLa stood at 1.35; in assay [1], 1.17.
The like results for `Cc1oc(-c2ccc([N+](=O)[O-])cc2)nc1CCl` were, in that order, 1.2 and 1.11.
In the same order, the values of `COc1ccc(S(=O)(=O)N(Cc2nc(-c3ccccc3)oc2C)[C@@H](C(=O)NO)C(C)C)cc1` are 1.02 and 0.98.
As for `Cc1oc(-c2ccc(-c3ccccc3)cc2)nc1C(=O)OCCO`, the outcome in the assay with SK-HEP1 [2] and in the assay with HCCLM3 was Active. In addition, the inhibition result in the assay on SK-HEP1 [3] was “Active”. In addition, the pEC50 in assay [4] was 5.13.
As to `COC(=O)[C@H](NS(=O)(=O)c1ccc(C)cc1)C(C)C`, the RLU was found to be 1.04 in the assay on HeLa and 1.03 in assay [1].
The like results for `COC(=O)[C@@H](C(C)C)N(Cc1nc(-c2ccc(OC)c(OC)c2)oc1C)S(=O)(=O)c1ccc(OC)cc1` were, in that order, 1.06 and 0.95.
Regarding `Cc1oc(-c2ccc(Cl)cc2)nc1CCl`, the RLU was found to be 1.22 with HeLa and 1.11 in assay [1].
